{
  "source": "patent US20070066580A1",
  "about": "“Novel aldosterone antagonists and uses thereof” (Recordati Ireland Limited, priority 2005, published 2007)",
  "biological_target": "T1, aldosterone receptor (Rattus norvegicus, UniProt P22199)",
  "T1 construct": "from tissue; host or cells: whole animal: adrenalectomised male Sprague-Dawley rats",
  "T1 sequence (P22199 1-981)": "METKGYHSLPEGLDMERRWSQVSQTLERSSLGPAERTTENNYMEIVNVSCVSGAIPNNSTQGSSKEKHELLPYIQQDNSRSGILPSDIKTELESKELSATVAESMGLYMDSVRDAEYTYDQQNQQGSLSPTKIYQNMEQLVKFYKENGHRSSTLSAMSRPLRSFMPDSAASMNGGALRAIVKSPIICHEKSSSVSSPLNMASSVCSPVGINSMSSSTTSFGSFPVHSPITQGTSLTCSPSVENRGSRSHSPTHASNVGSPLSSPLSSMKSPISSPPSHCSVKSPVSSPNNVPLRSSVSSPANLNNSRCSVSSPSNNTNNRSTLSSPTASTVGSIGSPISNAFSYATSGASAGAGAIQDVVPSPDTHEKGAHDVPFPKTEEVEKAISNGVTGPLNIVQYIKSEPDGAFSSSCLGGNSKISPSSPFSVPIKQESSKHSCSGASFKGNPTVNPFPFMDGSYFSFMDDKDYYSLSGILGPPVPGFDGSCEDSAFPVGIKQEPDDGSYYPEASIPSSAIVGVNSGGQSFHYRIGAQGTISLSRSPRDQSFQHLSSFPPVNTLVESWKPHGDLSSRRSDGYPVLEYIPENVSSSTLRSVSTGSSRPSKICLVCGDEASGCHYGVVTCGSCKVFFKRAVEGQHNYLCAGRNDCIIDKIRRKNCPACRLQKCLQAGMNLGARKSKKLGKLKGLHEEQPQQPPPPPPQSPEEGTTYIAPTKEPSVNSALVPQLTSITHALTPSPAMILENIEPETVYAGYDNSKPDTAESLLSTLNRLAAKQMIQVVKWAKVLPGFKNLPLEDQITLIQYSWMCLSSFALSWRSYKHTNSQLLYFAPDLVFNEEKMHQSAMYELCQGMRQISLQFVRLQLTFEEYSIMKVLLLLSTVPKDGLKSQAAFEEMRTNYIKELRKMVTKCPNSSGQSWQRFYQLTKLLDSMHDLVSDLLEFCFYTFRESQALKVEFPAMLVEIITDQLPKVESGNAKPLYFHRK",
  "assay": "Kagawa model, urinary Na+/K+ ratio in adrenalectomised rats given aldosterone",
  "type": "in vivo",
  "settings": "adrenalectomized rats, oral gavage, aldosterone 3 μg/animal s.c.",
  "excerpt": "To evaluate the in vivo activity of test compounds as aldosterone receptor antagonists, the Kagawa model was used, with some modifications. The original model first described by Kagawa (Endocrinology 1960; 67:125-131) has been widely utilised and reported in several published papers.\nBilateral adrenalectomised male Spague-Dawley rats aging approximately 5 weeks and weighing between 150 and 170 g at the time of surgery were obtained from Charles River (UK) Ltd., Margate, Kent. Following adrenalectomy, animals were maintained with standard diet and 0.9% (w/v) saline to drink. Saline replaces sodium ions lost due to the absence of the adrenal glands.\nThe animals were maintained for three days in standard condition and were trained in metabolic cages on one occasion prior to the test day for approximately 5 hours.\nFood was withheld from animals overnight prior to dosing. Saline was available ad libitum.\nApproximately 2 hours before dosing, saline was removed from the animals to ensure similar hydration levels. […]\nThe cumulative urine volume was measured and collected for analysis at 0-3 and 3-6 hours post-aldosterone. Urine was analysed for urinary sodium and potassium concentration. […]\nMean Na^+:K^+ ratios from each group were calculated. […]\nThe data were analysed using one-way Analysis of Variance (ANOVA). […]",
  "data": [
    {"smiles": "CCS[C@@H]1CC2=CC(=O)CC[C@]2(C)C2=CC[C@@]3(C)C(CC[C@@]34CCC(=O)O4)C21", "note": "(stereo partly shown) [Example 13]", "values": [
      {"measurement": "urinary Na+/K+ ratio relative to animals only receiving aldosterone", "value": "statistically significant increase"}
    ]}
  ]
}
